pIC50, pKi: −log10 of the molar value. Positions of bridges follow the written chain, without caps; N, C: chain ends. Residues, ends and D or L forms follow the SMILES beside them.

For test [1], the system named is ANVP receptor sites on cultured bovine vascular smooth muscle cells. Put plainly: Displacement of specific [125I]rANVP(126-150) binding on cultured smooth muscle cells. To be noted: for pKi: concentration of half-maximal displacement. From the text:
Specific and saturable binding is a necessary component of a hormone/receptor interaction.
Various concentrations of the peptides described were examined for […]

Test [2] concerns precontracted rabbit or rat aortic preparations. Put plainly: Vasorelaxant potency on precontracted aortic rings. To be noted: for pIC50: thoracic aortic segments precontracted with histamine or norepinephrine, read-out: IC50 (concentration producing half-maximal relaxation of the precontracted tissue); for vasorelaxant potency in words: precontracted vascular preparations. The procedure:
Synthetic ANVP compounds were compared to partially purified (gel filtration step) and purified (HPLC) native ANVP compounds (See FIGS. 3A-D) for their ability to relax histamine-contracted aortic rings. Rings were suspended in 10 ml aerated Kreb's buffer under 1.5 gm passive tension. Rings were precontracted with 5 X 10^-6 M histamine, washed and allowed to return to baseline tension, as described ([…]., supra). Increasing amounts of purified or synthetic ANVP compounds were then added in cumulative fashion. […] The relaxation effects of various ANVP compounds on precontracted rabbit or rat aortic preparations are shown in Table III. | Thoracic aortic segments were precontracted with histamine or | norepinephrine as previously described. Various doses of ANVP compounds | were then added and relaxation of the precontracted state was monitored. | Data are expressed as the concentration of each peptide required to | produce a halfmaximal relaxation of the precontracted tissue (IC50).

A further test relates to intact rats. Put plainly: Natriuretic and diuretic effects in intact rats (bolus injection). The test is classed as in vivo, rat. The settings on record: dose 455 pmol/kg. The procedure:
Synthetic ANVP compounds […] hANVP(127-151) were also found to be natriuretic in the intact rat. These compounds were administered as a bolus injection to Inactin anesthetized rats (100 mg/kg, average weight 399 g) which were maintained on a constant infusion of normal saline at 2.2 ml/hr. […] Data are expressed as mean±SE.

The test system of a further test is isolated rat kidney. Put plainly: Renal function in the isolated perfused rat kidney. The settings on record: dose 1 μg; experimental period E; mean of 3-8 experiments.

Consider `CC[C@H](C)[C@@H]1NC(=O)[C@H](CCCNC(=N)N)NC(=O)[C@H](CC(N)=O)NC(=O)[C@H]([C@@H](C)CC)NC(=O)[C@H](CCCNC(=N)N)NC(=O)CNC(=O)CNC(=O)[C@H](Cc2ccccc2)NC(=O)[C@@H](NC(=O)[C@H](CO)NC(=O)[C@H](CO)NC(=O)[C@@H](N)CCCNC(=N)N)CSSC[C@@H](C(=O)N[C@@H](CC(N)=O)C(=O)N[C@@H](CO)C(=O)N[C@@H](Cc2ccccc2)C(=O)N[C@@H](CCCNC(=N)N)C(=O)N[C@@H](Cc2ccc(O)cc2)C(=O)O)NC(=O)CNC(=O)[C@H](CC(C)C)NC(=O)CNC(=O)[C@H](CO)NC(=O)[C@H](CCC(N)=O)NC(=O)[C@H](C)NC(=O)CNC1=O` [[Asn^135]rANVP(126-150)] (H-RSSCFGGRINRIGAQSGLGCNSFRY-OH; disulfide 4-20), for which, in test [1] (Series B smooth muscle cells), the pKi was 7.47.

In the case of `CC[C@H](C)[C@@H]1NC(=O)[C@H](CCCNC(=N)N)NC(=O)[C@H](CC(=O)O)NC(=O)[C@@H](CCSC)NC(=O)[C@H](CCCNC(=N)N)NC(=O)CNC(=O)CNC(=O)[C@H](Cc2ccccc2)NC(=O)[C@@H](NC(=O)[C@H](CO)NC(=O)[C@H](CO)NC(=O)[C@@H](N)CCCNC(=N)N)CSSC[C@@H](C(=O)N[C@@H](CC(N)=O)C(=O)N[C@@H](CO)C(=O)N[C@@H](Cc2ccccc2)C(=O)N[C@@H](CCCNC(=N)N)C(=O)N[C@@H](Cc2ccc(O)cc2)C(=O)O)NC(=O)CNC(=O)[C@H](CC(C)C)NC(=O)CNC(=O)[C@H](CO)NC(=O)[C@H](CCC(N)=O)NC(=O)[C@H](C)NC(=O)CNC1=O` [[D-Met^135]hANVP(127-151), H-Arg-Ser-Ser-Cys-Phe-Gly-Arg-[D-Met]-Asp-Arg-Ile-Gly-Ala-Gln-Ser-Gly-Leu-Gly-Cys-Asn-Ser-Phe-Arg-Tyr-OH], in test [2], the pIC50 is 8.12. This molecule also gave a negative logarithm of the Ki (pKi) in test [1] (Series B smooth muscle cells) of 8.37.

With `CC[C@H](C)[C@@H]1NC(=O)[C@H](CCCNC(=N)N)NC(=O)[C@H](CC(=O)O)NC(=O)[C@H]([C@@H](C)CC)NC(=O)[C@H](CCCNC(=N)N)NC(=O)CNC(=O)CNC(=O)[C@H](Cc2ccccc2)NC(=O)[C@@H](NC(=O)[C@H](CO)NC(=O)[C@H](CO)NC(=O)[C@@H](N)CCCNC(=N)N)CSSC[C@@H](C(=O)N[C@@H](CC(N)=O)C(=O)N[C@@H](CO)C(=O)N[C@@H](Cc2ccccc2)C(=O)O)NC(=O)CNC(=O)[C@H](CC(C)C)NC(=O)CNC(=O)[C@H](CO)NC(=O)[C@H](CCC(N)=O)NC(=O)[C@H](C)NC(=O)CNC1=O` [rANVP(126-148)] (H-RSSCFGGRIDRIGAQSGLGCNSF-OH; disulfide 4-20), in test [2], the “vasorelaxant potency in words” value was “substantially less potent than rANVP(126-150)” and the pIC50 was 8.12. Moreover, the “binding activity in smooth muscle cells relative to rANVP(126-150), in words” value in test [1] is recorded as “comparable binding activity to rANVP(126-150)”. Besides, the negative-log Ki (pKi) in test [1] (Series B smooth muscle cells) was 8.88. Further, in the test with intact rats, the “Peak Na+ Excr.” value turned out to be 56.3 ± 8 µmol/min and the “Peak Urine Vol.” value is 6.8 ± 0.5 µL/min.

Molecule `CC[C@H](C)[C@@H]1NC(=O)[C@H](CCCNC(=N)N)NC(=O)[C@H](CC(=O)O)NC(=O)[C@H](CCSC)NC(=O)[C@H](CCCNC(=N)N)NC(=O)CNC(=O)CNC(=O)[C@H](Cc2ccccc2)NC(=O)[C@@H](NC(=O)[C@H](CO)NC(=O)[C@H](CO)NC(=O)[C@@H](N)CCCNC(=N)N)CSSC[C@@H](C(=O)N[C@@H](CC(N)=O)C(=O)N[C@@H](CO)C(=O)N[C@@H](Cc2ccccc2)C(=O)O)NC(=O)CNC(=O)[C@H](CC(C)C)NC(=O)CNC(=O)[C@H](CO)NC(=O)[C@H](CCC(N)=O)NC(=O)[C@H](C)NC(=O)CNC1=O` [hANVP(127-149)] (H-RSSCFGGRMDRIGAQSGLGCNSF-OH; disulfide 4-20) gave a pKi in test [1] (Series B smooth muscle cells) of 8.61.

`CC[C@H](C)[C@@H]1NC(=O)[C@H](CCCNC(=N)N)NC(=O)[C@H](CC(=O)O)NC(=O)[C@H]([C@@H](C)CC)NC(=O)[C@H](CCCNC(=N)N)NC(=O)CNC(=O)CNC(=O)[C@H](Cc2ccccc2)NC(=O)[C@@H](NC(=O)[C@H](CO)NC(=O)[C@H](CO)NC(=O)[C@@H](N)CCCNC(=N)N)CSSC[C@@H](C(=O)N[C@@H](CC(N)=O)C(=O)N[C@@H](CO)C(N)=O)NC(=O)CNC(=O)[C@H](CC(C)C)NC(=O)CNC(=O)[C@H](CO)NC(=O)[C@H](CCC(N)=O)NC(=O)[C@H](C)NC(=O)CNC1=O` [rANVP(126-147)-NH2] (H-RSSCFGGRIDRIGAQSGLGCNS-NH2; disulfide 4-20): in test [2], the pIC50 was 7.89. The molecule also showed a pKi in test [1] (Series B smooth muscle cells) of 8.74.

On to `CC[C@H](C)[C@@H]1NC(=O)[C@H](CCCNC(=N)N)NC(=O)CNC(=O)CNC(=O)[C@H](Cc2ccccc2)NC(=O)[C@@H](NC(=O)[C@H](CO)NC(=O)[C@H](CO)NC(=O)[C@@H](N)CCCNC(=N)N)CSSC[C@@H](C(=O)N[C@@H](CC(N)=O)C(=O)N[C@@H](CO)C(=O)N[C@@H](Cc2ccccc2)C(=O)N[C@@H](CCCNC(=N)N)C(=O)N[C@@H](Cc2ccc(O)cc2)C(=O)O)NC(=O)CNC(=O)[C@H](CC(C)C)NC(=O)CNC(=O)[C@H](CO)NC(=O)[C@H](CCC(N)=O)NC(=O)[C@H](C)NC(=O)[C@@H](C)NC(=O)[C@H]([C@@H](C)CC)NC(=O)[C@H](CCCNC(=N)N)NC(=O)[C@H](CC(=O)O)NC1=O` [[D-Ala^138]rANVP(126-150), H-Arg-Ser-Ser-Cys-Phe-Gly-Gly-Arg-Ile-Asp-Arg-Ile-[D-Ala]-Ala-Gln-Ser-Gly-Leu-Gly-Cys-Asn-Ser-Phe-Arg-Tyr-OH], for which, in the test with isolated rat kidney, the “.V (urine flow rate)” value turned out to be 57.5 µL/min, the GFR came to 0.54 mL/min and the “UNa.V (urinary sodium excretion rate)” value is 2.53 μEq/min. Further, in test [2], the pIC50 was 8.51. The molecule also had a negative-log Ki (pKi) in test [1] (Series A smooth muscle cells) of 7.70.

For `CC[C@H](C)[C@@H]1NC(=O)[C@H](CCCNC(=N)N)NC(=O)[C@H](CC(=O)O)NC(=O)[C@H](CCSC)NC(=O)[C@H](CCCNC(=N)N)NC(=O)CNC(=O)CNC(=O)[C@H](Cc2ccccc2)NC(=O)[C@@H](NC(=O)[C@H](CO)NC(=O)[C@H](CO)NC(=O)[C@@H](N)CCCNC(=N)N)CSSC[C@@H](C(=O)O)NC(=O)CNC(=O)[C@H](CC(C)C)NC(=O)CNC(=O)[C@H](CO)NC(=O)[C@H](CCC(N)=O)NC(=O)[C@H](C)NC(=O)CNC1=O` [hANVP(127-146)] (H-RSSCFGGRMDRIGAQSGLGC-OH; disulfide 4-20), in test [2], the “vasorelaxant potency in words” value is “substantially diminished potency” and the pIC50 was 7.00. This molecule gave a pKi in test [1] (Series B smooth muscle cells) of 8.74.

The record behind these values is patent publication US5212286A, “Atrial Natriuretic/vasodilator peptide compounds” (Scios Nova Inc., priority 1986, dated 1993).
